Experimental data from PMC6263254, “Solid-Phase Synthesis of Arylpiperazine Derivatives and Implementation of the Distributed Drug Discovery (D3) Project in the Search for CNS Agents” (Molecules, 2011).
Like-named read-outs stand apart in the source and are kept apart here.

Assays:
[1] = target: T1, native serotonin 5-HT1A receptors (Rattus norvegicus, UniProt P19327); test: Radioligand binding, [3H]-8-OH-DPAT, rat hippocampal membranes; settings: read-out: Ki 5-HT1A; also: SEM ≤ 22%
T1 construct: from tissue; host or cells: rat hippocampus membranes
T1 sequence (P19327 1-422): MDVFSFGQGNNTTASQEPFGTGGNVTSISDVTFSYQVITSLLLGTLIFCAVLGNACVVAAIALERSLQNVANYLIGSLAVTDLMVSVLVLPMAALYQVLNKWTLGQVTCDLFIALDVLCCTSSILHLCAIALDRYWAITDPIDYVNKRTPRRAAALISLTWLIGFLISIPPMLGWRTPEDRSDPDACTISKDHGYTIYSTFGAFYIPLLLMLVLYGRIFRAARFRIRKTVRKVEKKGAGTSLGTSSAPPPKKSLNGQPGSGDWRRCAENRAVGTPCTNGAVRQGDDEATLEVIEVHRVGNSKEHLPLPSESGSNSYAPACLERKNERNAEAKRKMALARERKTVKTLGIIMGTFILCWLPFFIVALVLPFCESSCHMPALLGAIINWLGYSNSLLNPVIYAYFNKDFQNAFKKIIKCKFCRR
Method: (§1) Membrane preparation and a general assay procedure were carried out according to the previously published protocols. Two compound concentrations were tested: 0.1 and 1 μM, each run in triplicate.

[2] = target: T2, native serotonin 5-HT2A receptors (Rattus norvegicus, UniProt P14842); test: Radioligand binding, [3H]-ketanserin, rat cortical membranes; settings: read-out: Ki 5-HT2A; as to Ki 5-HT2A: SEM ≤ 22%
T2 construct: from tissue; host or cells: rat cortex membranes
Method: as §1

5-HT2A = settings: cited from earlier work
5-HT1A receptors = settings: cited from earlier work
[3] = set-up: method as in PMID 17321139; settings: doses of 5–20 mg/kg; ref [4]; cited from earlier work

T2 sequence (P14842 whole entry): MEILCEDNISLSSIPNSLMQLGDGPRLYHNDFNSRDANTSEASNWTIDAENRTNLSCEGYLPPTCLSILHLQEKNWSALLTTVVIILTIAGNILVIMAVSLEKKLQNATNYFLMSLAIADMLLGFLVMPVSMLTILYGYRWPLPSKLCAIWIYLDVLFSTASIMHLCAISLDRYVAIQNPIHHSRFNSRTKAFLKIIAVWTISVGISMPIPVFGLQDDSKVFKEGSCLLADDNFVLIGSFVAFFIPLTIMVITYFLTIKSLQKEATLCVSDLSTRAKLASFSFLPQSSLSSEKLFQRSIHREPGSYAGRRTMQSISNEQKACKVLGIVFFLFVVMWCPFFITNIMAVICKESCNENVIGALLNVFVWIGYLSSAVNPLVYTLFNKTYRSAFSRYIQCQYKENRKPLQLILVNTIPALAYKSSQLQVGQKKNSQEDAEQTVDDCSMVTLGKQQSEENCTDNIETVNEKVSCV

Row | Compound | potency estimated from few doses [1] | potency estimated from few doses [2] | also measured
1 | CC(=O)N[C@H]1CC(=O)N(CCCN2CCN(c3cccc(C(F)(F)F)c3)CC2)C1=O [9{8,1}, N-((S)-1-{3-[4-((3-trifluoromethyl)phenyl)piperazin-1-yl]propyl}pyrrolidin-2,5-dion-yl)acetamide] | 129 nM | 164 nM | –
2 | O=C(N[C@H]1CC(=O)N(CCCN2CCN(c3cccc(C(F)(F)F)c3)CC2)C1=O)C1CCCCC1 [9{8,3}, N-((S)-1-{3-[4-((3-trifluoromethyl)phenyl)piperazin-1-yl]propyl}pyrrolidin-2,5-dion-yl)cyclohexanecarboxamide] | 170 nM | 276 nM | –
3 | O=C(N[C@H]1CC(=O)N(CCCCN2CCN(c3cccc(C(F)(F)F)c3)CC2)C1=O)C1CCCC1 [9{9,2}, N-((S)-1-{4-[4-((3-trifluoromethyl)phenyl)piperazin-1-yl]butyl}pyrrolidin-2,5-dion-yl)cyclopentanecarboxamide] | 24 nM | 79 nM | –
4 | O=C(N[C@H]1CC(=O)N(CCCCN2CCN(c3cccc(C(F)(F)F)c3)CC2)C1=O)C1CCCCC1 [9{9,3}, N-((S)-1-{4-[4-((3-trifluoromethyl)phenyl)piperazin-1-yl]butyl}pyrrolidin-2,5-dion-3-yl)cyclohexanecarboxamide] | 19 nM | 70 nM | –
5 | O=C1C[C@H](NC(=O)C23CC4CC(CC(C4)C2)C3)C(=O)N1CCCCN1CCN(c2cccc(C(F)(F)F)c2)CC1 [9{9,6}, N-((S)-1-{4-[4-((3-trifluoromethyl)phenyl)piperazin-1-yl]butyl}pyrrolidin-2,5-dion-yl)-1-adamatanecarboxamide] | 21 nM | 39 nM | –
6 | O=C(NCCCN1CCN(c2cccc(C(F)(F)F)c2)CC1)[C@@H]1CCCN1C(=O)C12CC3CC(CC(C3)C1)C2 [10{8,6}, 1-(Adamantylcarbonyl)-N-{3-[4-((3-trifluoromethyl)phenyl)piperazin-1-yl]propyl}-L-prolinamide] | 42 nM | 1650 nM | –
7 | O=C(NCCCCN1CCN(c2cccc(C(F)(F)F)c2)CC1)[C@@H]1CCCN1C(=O)C1CCCC1 [10{9,2}, 1-(Cyclopentylcarbonyl)-N-{4-[4-((3-trifluoromethyl)phenyl)piperazin-1-yl]butyl}-L-prolinamide] | 26 nM | 191 nM | –
8 | O=C(NCCCCN1CCN(c2cccc(C(F)(F)F)c2)CC1)[C@@H]1CCCN1C(=O)C12CC3CC(CC(C3)C1)C2 [10{9,6}, 1-(Adamantylcarbonyl)-N-{4-[4-((3-trifluoromethyl)phenyl)piperazin-1-yl]butyl}-L-prolinamide] | 8 nM | 699 nM | –
9 | O=c1[nH]c2ccccc2n1CCN1CCN(c2cccc(C(F)(F)F)c2)CC1 [Flibanserin] | – | – | functional activity at 5-HT2A receptors (5-HT2A; ref [1],[2]): antagonist; functional activity at 5-HT1A receptors (5-HT1A receptors; ref [1],[2]): agonist
10 | COc1ccccc1N1CCN(CCCCN2C(=O)C[C@H](NC(=O)C3CCCCC3)C2=O)CC1 [PZ-68] | – | – | in vivo antidepressant-like activity [3]: showed in vivo antidepressant-like activity; functional activity at 5-HT2A receptors (5-HT2A; ref [4]): antagonist; functional activity at 5-HT1A receptors (5-HT1A receptors; ref [4]): partial agonist
11 | O=C1CC2(CCCC2)CC(=O)N1CCCCN1CCN(c2ncccn2)CC1 [buspirone, reference compound] | 36 nM | – | –
